Data published in patent US20120245229A1, “METHOD FOR TREATING NEUROPATHIC PAIN” (priority 2009, published 2012).

Key:
[1] = tested on: formalin-induced inflammatory pain; assay: Formalin-induced spontaneous inflammatory pain (licking/flinching duration); assay type: in vivo, mice
Procedure: (§1) Animals and pain models. Adult CD1 mice (male, 25-32 g) were used for most experiments. Knockout mice were used lacking TNFR1/II (Tnfrsf1a/1b^−/−) and TRPV1 (Trpv1^−/−) and C57BL/6 wild-type control mice, all from Jackson, for some experiments. All animal procedures performed in this study were approved by the Harvard Medical Area Standing Committee on Animals. 20 μl of diluted formalin (5%), carrageenan (CRG, 1%), or complete Freund's adjuvant (CFA) were injected into the plantar surface of a hindpaw to produce acute, persistent, or chronic inflammatory pain, respectively. Postoperative pain was also produced through hindpaw incision^36 and neuropathic pain by ligation of the spinal nerve^37.
Reagents and administration. RvE1 and RvD1 were suspended in 1% or 10% ethanol as vehicle for investigating acute (<1 h) and persistent (1-6 h) effects of resolvins on inflammatory pain. The reagents (10 μl) were delivered to the cerebral spinal fluid via intrathecal injection made by a spinal cord puncture between the L5 and L6 level with a 30G needle^38.
(§2) Behavioral analysis. Mice were habituated in the testing environment for two days and performed behavioral testing in a blinded manner. Formalin-evoked spontaneous inflammatory pain was assessed by measuring duration (seconds) animals spent on licking/flinching the affected paws every 5 min for 45 min. Capsaicin-induced spontaneous pain was aslo assessed for 10 min. For testing mechanical sensitivity, mice were put in boxes on an elevated metal mesh floor and stimulated hindpaw with a series of von Frey hairs with logarithmically incrementing stiffness (0.02-2.56 grams, Stoelting), presented perpendicular to the plantar surface. It was determined the 50% paw withdrawal threshold using Dixon's up-down method^40. For testing heat sensitivity, mice were placed in plastic boxes and tested heat sensitivity using Hargreaves radiant heat apparatus (IITC Life Science Inc.). The basal paw withdrawal latency was adjusted to 9-12 seconds and set a cut-off of 20 seconds to prevent tissue damage. The percent maximal possible antinociceptive effect (% M.P.E) was calculated using the equation % M.P.E.=[(PL−BL2)/(BL1−BL2)]×100. BL1, baseline latency before inflammation; BL2, baseline latency after inflammation but before drug injection; PL, latency post drug injection.
Intrathecal injection. To avoid systemic effects of drugs and target spinal mechanisms, drugs were delivered into cerebral spinal fluid (CSF) space around lumbosacral spinal cord via intrathecal (i.t.) administration. Spinal cord puncture was made with a 30G needle between the L5 and L6 level to deliver the reagents (10 μl) to the cerebral spinal fluid (Hylden and Wilcox, 1980)^5. […] In addition to spinal cord cells, intrathecal drug administration also affects DRG cells^6,7.
Intrathecal injection: DHA and EPA (Cayman Chemical, 10 μg, prepared in 1% ethanol), COX-2 inhibitor NS-398 (Sigma, 0.1, 1, and 10 μg, prepared in 1% ethanol in FIG. 1a-c or in 10% ethanol in FIG. 2c), morphine (Sigma, 10 to 500 ng, prepared in 1% ethanol in FIG. 1a-c), naloxone (Sigma, 2 μg, prepared in 1% ethanol), pertussis toxin (Tocris Bioscience, 0.2 μg, prepared in saline), chemerin (R & D Systems, 0.45 to 100 ng, prepared in 1% ethanol), TNF-α (R & D Systems, 20 ng, prepared in saline), and capsaicin (Sigma, 0.5 μg in 10 μl, prepared in 1% DMSO) were delivered. To examine whether pretreatment of RvE1 attenuated TNF-α-induced persistent hyperalgesia at 1, 3, and 24 h, RvE1 and TNF-α were mixed and injected at the same time (FIG. 3c). To examine whether pretreatment of RvE1 attenuates capsaicin-induced acute spontaneous pain, RvE1 and capsaicin were mixed and injected at the same time (FIG. 3f).

[2] = tested on: CFA-induced mechanical allodynia; assay: CFA-induced mechanical allodynia (von Frey paw withdrawal threshold); assay type: in vivo, mice; conditions: intrathecal RvE1 3-100 ng, 3 d after CFA injection
Procedure: as §1
(§3) Behavioral analysis. Mice were habituated in the testing environment for two days and performed behavioral testing in a blinded manner. Formalin-evoked spontaneous inflammatory pain was assessed by measuring duration (seconds) animals spent on licking/flinching the affected paws every 5 min for 45 min. Capsaicin-induced spontaneous pain was aslo assessed for 10 min. […] It was determined the 50% paw withdrawal threshold using Dixon's up-down method^40. […] The percent maximal possible antinociceptive effect (% M.P.E) was calculated using the equation % M.P.E.=[(PL−BL2)/(BL1−BL2)]×100. […]

naïve mice = assay: Basal pain thresholds in naive mice; assay type: in vivo; conditions: intrathecal
Procedure: as §2

[3] = tested on: carrageenan (CRG)-elicited heat hyperalgesia; assay: Carrageenan (CRG)-elicited heat hyperalgesia; assay type: in vivo, mice; conditions: intraplantar pretreatment, 20 ng, 10 min before carrageenan
Procedure: as §1, §2
Resolvins were also used for intraplantar injection. […]

[4] = tested on: paw incision-induced postoperative pain; assay: Postoperative pain model induced by hindpaw incision; assay type: in vivo, mice; conditions: postoperative pain model induced by surgical incision
Procedure: as §1, §3

[5] = tested on: SNL-induced neuropathic pain; assay: Neuropathic pain model induced by spinal nerve ligation (SNL); assay type: in vivo, mice
Procedure: as §1, §2

inflammatory pain = assay: Inflammatory pain models induced by formalin or CFA (summary statements); assay type: in vivo, mouse
Procedure: as §1, §2

[6] = tested on: formalin-induced inflammatory pain; assay: Formalin-induced spontaneous inflammatory pain (licking/flinching duration); assay type: in vivo, mice; conditions: intraplantar RvE1 20 ng, 10 min before intraplantar formalin

CC[C@@H](O)/C=C/C=C\C[C@@H](O)/C=C/C=C/C=C\[C@@H](O)CCCC(=O)O [RvE1, 5S,12R,18R-trihydroxyeicosapentaenoic acid]
effective dose range compared with morphine and NS-398, formalin 2nd phase ([1]; intrathecal, dose response curve FIG. 1c): much lower than that of either morphine or the COX-2 inhibitor NS-398 | formalin-induced pain behavior, 1st phase ([1]; preemptive intrathecal injection, RvE1 0.3 and 1.0 ng): not the 1st phase | formalin-induced pain behavior, 2nd phase ([1]; preemptive intrathecal injection, RvE1 0.3 and 1.0 ng, morphine 10 to 500 ng, NS-398 0.1, 1, and 10 μg, chemerin 0.45 to 100 ng): reduced | CFA-induced mechanical allodynia [2]: reduces CFA-induced mechanical allodynia in a dose-dependent manner | baseline sensory thresholds (naïve mice): did not alter baseline sensory thresholds | CRG-evoked heat hyperalgesia [3]: substantially attenuated | postoperative pain [4]: effectively abolish | SNL-induced heat hyperalgesia ([5]; 10 ng, i.t., one day after spinal nerve ligation): reduces SNL-induced heat hyperalgesia | nerve injury-induced hyperalgesia ([5]; neuropathic pain model induced by spinal nerve ligation): potently attenuate | pain-like behaviors (inflammatory pain): potently inhibit | formalin-evoked acute pain [6]: rapidly attenuated
